# Measured values from ChEMBL document CHEMBL4138063, “Discovery of Decamidine as a New and Potent PRMT1 Inhibitor” (Medchemcomm, 2017).
# Active and inactive are the calls of the source. No cut-off for these calls is given here.
# Columns and labels:
# [1] = target: T1, Protein arginine N-methyltransferase 5 (Homo sapiens, UniProt O14744); assay: Inhibition of PRMT5 (unknown origin) assessed as reduction in methyl transfer from [3H]-SAM to biotinylated histone H4 peptide H4-20-Biotin at 10 uM pre-incubated for 3 mins before [3H]-SAM addition and measured after 45 mins by scintillation proximity assay
# T1 sequence (O14744 whole entry): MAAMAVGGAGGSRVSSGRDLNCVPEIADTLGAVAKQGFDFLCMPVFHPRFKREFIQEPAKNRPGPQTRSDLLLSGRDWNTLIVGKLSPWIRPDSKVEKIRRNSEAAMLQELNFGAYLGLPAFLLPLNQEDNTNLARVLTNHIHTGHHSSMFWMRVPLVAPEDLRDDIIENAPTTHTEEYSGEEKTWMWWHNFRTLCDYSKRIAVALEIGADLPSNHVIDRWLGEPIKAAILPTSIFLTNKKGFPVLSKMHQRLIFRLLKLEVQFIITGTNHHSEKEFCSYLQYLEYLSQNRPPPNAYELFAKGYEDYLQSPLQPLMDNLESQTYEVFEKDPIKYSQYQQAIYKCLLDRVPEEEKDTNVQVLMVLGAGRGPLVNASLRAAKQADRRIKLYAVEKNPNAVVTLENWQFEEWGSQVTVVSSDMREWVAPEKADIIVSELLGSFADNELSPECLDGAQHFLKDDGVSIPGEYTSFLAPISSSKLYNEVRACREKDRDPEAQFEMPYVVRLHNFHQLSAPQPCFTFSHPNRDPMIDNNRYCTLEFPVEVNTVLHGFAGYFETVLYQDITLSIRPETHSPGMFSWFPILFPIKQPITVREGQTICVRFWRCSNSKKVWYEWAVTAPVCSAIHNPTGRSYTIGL
# [2] = target: T1, Protein arginine N-methyltransferase 5; assay: Inhibition of PRMT5 (unknown origin) assessed as reduction in methyl transfer from [3H]-SAM to biotinylated histone H4 peptide H4-20-Biotin at 100 uM pre-incubated for 3 mins before [3H]-SAM addition and measured after 45 mins by scintillation proximity assay
# [3] = target: T1, Protein arginine N-methyltransferase 5; assay: Inhibition of PRMT5 (unknown origin) assessed as reduction in methyl transfer from [3H]-SAM to biotinylated histone H4 peptide H4-20-Biotin pre-incubated for 3 mins before [3H]-SAM addition and measured after 45 mins by scintillation proximity assay
# [4] = target: Protein arginine N-methyltransferase 1 (Homo sapiens, UniProt Q99873); assay: Inhibition of PRMT1 (unknown origin) assessed as reduction in methyl transfer from [3H]-SAM to biotinylated histone H4 peptide H4-20-Biotin at 10 uM pre-incubated for 3 mins before [3H]-SAM addition and measured after 15 mins by scintillation proximity assay
# Chain of Protein arginine N-methyltransferase 1 (Q99873 whole entry): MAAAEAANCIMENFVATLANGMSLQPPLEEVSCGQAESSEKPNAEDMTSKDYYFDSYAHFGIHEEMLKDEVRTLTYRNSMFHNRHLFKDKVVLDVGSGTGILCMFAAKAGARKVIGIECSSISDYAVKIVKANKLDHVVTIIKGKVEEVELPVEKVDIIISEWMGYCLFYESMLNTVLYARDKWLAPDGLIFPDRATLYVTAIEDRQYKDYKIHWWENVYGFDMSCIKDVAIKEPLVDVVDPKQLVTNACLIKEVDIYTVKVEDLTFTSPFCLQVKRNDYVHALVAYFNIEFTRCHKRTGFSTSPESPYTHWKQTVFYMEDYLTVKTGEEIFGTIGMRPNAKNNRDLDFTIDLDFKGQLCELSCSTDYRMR
SMILES,inhibition [1],inhibition [2],IC50 [3] [µM],IC50 [4] [µM]
N=C(N)c1ccc(Oc2ccc(C(=N)N)cc2)cc1,inactive,inactive,,
N=C(N)c1ccc(OCCCCCCOc2ccc(C(=N)N)cc2)cc1 [HEXAMIDINE],inactive,inactive,357,
N=C(N)c1ccc(OCCCOc2ccc(C(=N)N)cc2)cc1,inactive,inactive,,
N=C(N)c1ccc(-c2ccc(-c3ccc(C(=N)N)cc3)o2)cc1 [FURAMIDINE],,50%,256,22
N=C(N)c1ccc(OC/C=C/COc2ccc(C(=N)N)cc2)cc1,inactive,inactive,,
N=C(N)c1ccc(OCOc2ccc(C(=N)N)cc2)cc1,,50%,,
CC(CCCOc1ccc(C(=N)N)cc1)Oc1ccc(C(=N)N)cc1 (configuration not stated),inactive,inactive,,
N=C(N)c1ccc(OCCOc2ccc(C(=N)N)cc2)cc1,inactive,inactive,,
N=C(N)c1ccc(OCCCCOc2ccc(C(=N)N)cc2)cc1,inactive,inactive,,
N=C(N)c1ccc(/C=C/c2ccc(C(=N)N)cc2)cc1 [STILBAMIDINE],,,712,
N=C(N)c1ccc(OCCCCCCCCCCOc2ccc(C(=N)N)cc2)cc1,,50%,43,
